In patent publication US20250367167A1, “COMPOSITION FOR MITOCHONDRIAL MODIFICATION COMPRISING A COMBINATION OF TWO OR MORE NATURAL PIGMENTS” (University of Seoul Industry Cooperation Foundation, priority 2024, published 2025):
Where “and” joins values, the source holds several entries; their conditions need not be identical. Identical values can stand only once.

Experiments:
[1] = Absorption spectrum analysis of natural pigments (UV/Vis); type: physicochemical; conditions: 100 μM β-carotene, 60 μM anthocyanins, 40 μM chlorophyll a
Method: In order to analyze the absorbance spectra of three natural pigments (i.e., β-carotene, delphinidin chloride (anthocyanin), and chlorophyll a (Sigma-Aldrich)), the absorbance analysis was performed using a UV/Vis NANO spectrophotometer (Nabi).
In the drawing, “Experimental result” corresponds to the actually-measured absorption spectrum, and “Calculated result” represents the result of added-up values of the absorption spectrum of single natural pigments.
The results of the absorption spectrum analysis over time by mixing 100 µM B-carotene, 60 μM anthocyanin, and 40 μM chlorophyll a in various combinations are shown in FIG. 2E to 2H.

[2] = system: mitochondrial electron transport chain protein complexes; assay: ATP production after treatment with inhibitors of electron transport chain protein complexes; type: biochemical, human; conditions: 2 μM inhibitor, 1 hour; C@mt; light 640-680 nm, 5 mW, 80 minutes
Method: It is generally known that ATP is produced through protein complexes involved in the electron transport process during the oxidative phosphorylation process of mitochondria. Accordingly, an analysis was performed using the ATP Assay Kit (Abcam) to evaluate the amount of ATP production when treating with inhibitors for each protein complex.
A total of 50 μL of mitochondria including each combination of natural pigments (C@mt, BC@mt, AC@mt, or BAC@mt) and 2 μM of inhibitors (Rotenone, Malonate, Antimycin A or Cyanide) for each protein complex were added to the E-tube and incubated at room temperature for 1 hour. Then, the supernatant was removed using a centrifuge (12,000 g, 15 minutes) and resuspended in 50 μL of PBS. 50 μL of mitochondria including a combination of natural pigments treated with inhibitors were added to each 96-well black plate, and irradiated with light having a wavelength of 640-680 nm at an intensity of 5 mW for 80 minutes. […]
Then, the amount of ATP production was measured by measuring the fluorescence intensity (Ex/Em=535/587 nm) using a microplate reader. The amount of ATP production was calculated by subtracting the fluorescence value measured upon irradiation with light for 0 minutes from the fluorescence value measured upon irradiation with light for 80 minutes, and the results are shown in FIGS. 8A and 8B.

wavelength of high absorbance (absorption spectrum) [1] | Structure (SMILES) | ATP production after inhibitor treatment [2]
555 nm | Oc1cc(O)c2cc(O)c(-c3cc(O)c(O)c(O)c3)[o+]c2c1 [anthocyanins, delphinidin chloride] | 
 | O=C(O)CC(=O)O [malonate, Malonate] | rapid decrease
475 nm | CC1=C(/C=C/C(C)=C/C=C/C(C)=C/C=C/C=C(C)/C=C/C=C(C)/C=C/C2=C(C)CCCC2(C)C)C(C)(C)CCC1 [β-carotene] | 

Structure (SMILES) | wavelength of high absorbance (absorption spectrum) [1] | ATP production after inhibitor treatment [2]
C=Cc1c(C)c2cc3nc(c4c5[n-]c(cc6nc(cc1[n-]2)C(C)=C6CC)c(C)c5C(=O)[C@@H]4C(=O)OC)[C@@H](CCC(=O)OC/C=C(\C)CCC[C@H](C)CCC[C@H](C)CCCC(C)C)[C@@H]3C.[Mg+2] [chlorophyll a] | 415 nm and 662 nm | 
